Test results from patent US8753838B2, “Method for producing alcohol using bioethanol waste fermented solution” (Korea Institute of Science and Technology, priority 2010, dated 2014).
“Also recorded” adds a separate entry of the source.

Tests used:
[1] = tested on: Clostridium pasteurianum (C. pasteurianum DSM 525); experiment: Alkaline agent for pH control of medium: growth and butanol production of Clostridium pasteurianum (Example 4); format: cell-based; details: for cell growth (order of alkaline agents): medium of Example 1 with 10 g/L lactic acid, pH adjusted to 6.5 using each alkaline agent
Source text: In the experiment for evaluating the effect of lactic acid, acetic acid and ethanol on the growth of Clostridium pasteurianum (C. pasteurianum DSM 525), sodium hydroxide (NaOH) was used to adjust the pH of the medium. Since the ethanol waste fermented solution has a pH of 4-5, the pH needs to be controlled using an alkaline agent in order to produce butanol using the Clostridium pasteurianum (C. pasteurianum DSM 525). In addition to sodium hydroxide, potassium hydroxide (KOH), calcium hydroxide (Ca(OH)2), ammonia water (NH4OH), etc. are available as the alkaline agent. It was investigated whether the growth of Clostridium pasteurianum (C. pasteurianum DSM 525) is affected by the alkaline agents. For this purpose, after adding lactic acid (10 g/L) to the medium of Example 1, pH was adjusted to 6.5 using each alkaline agent.

[2] = tested on: Clostridium pasteurianum (DSM 525); experiment: Effect of lactic acid, acetic acid and ethanol on growth and butanol production of Clostridium pasteurianum in glycerol medium (Example 1); format: cell-based; details: for inhibition of the growth of Clostridium pasteurianum (OD600): added to the medium up to 10 g/L, pH 6.5, 37° C.
Experimental: The butanol-producing bacterium Clostridium pasteurianum (DSM 525) was acquired from the DSMZ (Germany). The medium used for experiment was prepared with primarily distilled water (1 L) by adding the following ingredients: glycerol (30 g), K2HPO4 (0.5 g), KH2PO4 (0.5 g), MnSO4.H2O (0.01 g), MgSO4.7H2O (0.2 g), FeSO4.7H2O (0.01 g), NaCl (0.01 g), yeast extract (1 g), (NH4)2SO4 (2 g), MES (19.52 g), biotin (0.00001 g), thiamine (0.001 g) and p-aminobenzoic acid (0.001 g).
After adding lactic acid (C3H6O3, 0-14.6 g/L), acetic acid (C2H4O2, 0-10 g/L) or ethanol (C2H60, 0-20 g/L) to the medium, the pH was adjusted to 6.5 using potassium hydroxide (KOH) or sodium hydroxide (NaOH). After placing the medium (50 mL) in a 125-mL serum bottle and removing oxygen by blowing in argon gas, the bottle was sealed with a butyl rubber stopper and an aluminum cap. After sterilizing under high pressure and inoculating Clostridium pasteurianum cultured for 1-2 days at 5% (v/v), the bacterium was cultured at 37° C. while shaking at 130 rpm.
The cell growth was determined by measuring absorbance (optical density) at 600 nm (OD600).

Compound | cell growth (order of alkaline agents) [1] | inhibition of the growth of Clostridium pasteurianum (OD600) [2] | further results
[Ca+2].[OH-].[OH-] [calcium hydroxide, calcium hydroxide (Ca(OH)2)] | faster in the order of calcium hydroxide, potassium hydroxide, ammonia water and sodium hydroxide |  | 
[K+].[OH-] [potassium hydroxide, potassium hydroxide (KOH)] | faster in the order of calcium hydroxide, potassium hydroxide, ammonia water and sodium hydroxide |  | 
[Na] [sodium] |  |  | growth of the microorganism ([1]; as compared to potassium): inhibits the growth
CC(O)C(=O)O (stereo not drawn) [Lactic acid, lactic acid] |  | did not result in severe inhibition | production of butanol ([2]; lactic acid added (10 g/L or less) compared to when not added): improved butanol-producing effect; also recorded: improved production of butanol
[Na+].[OH-] [sodium hydroxide, sodium hydroxide (NaOH)] | faster in the order of calcium hydroxide, potassium hydroxide, ammonia water and sodium hydroxide |  | 
CC(=O)O [acetic acid] |  | did not result in severe inhibition | 
CCO [ethanol] |  | did not result in severe inhibition | 
N [ammonia water, ammonia water (NH4OH)] | faster in the order of calcium hydroxide, potassium hydroxide, ammonia water and sodium hydroxide |  | 
